Experiment [1] concerns the target T1, Potassium voltage-gated channel subfamily A member 3 (Homo sapiens, UniProt P22001). Type of experiment: cell-based, CHO-K1.
Experiment [2] has as its target T1, Potassium voltage-gated channel subfamily A member 3. Description: cell-based. Also on record: species or system Blood.
The target is the same in experiment [3]. Also on record: species or system Blood.

Bridge positions count the residues as written; N and C are the ends. Square brackets hold non-standard residues; d marks the D form. Peptide text beside a SMILES is read from it. 1Nal = N[C@@H](Cc1cccc2ccccc12)C(=O)O

Data on eight compounds can be found in ChEMBL document CHEMBL3608278 (J Med Chem, 2015).

By IC50 is commonly meant the point on the concentration scale where inhibition reaches its midpoint. High values mean lower potency, low ones higher potency.

T1 sequence (P22001 whole entry): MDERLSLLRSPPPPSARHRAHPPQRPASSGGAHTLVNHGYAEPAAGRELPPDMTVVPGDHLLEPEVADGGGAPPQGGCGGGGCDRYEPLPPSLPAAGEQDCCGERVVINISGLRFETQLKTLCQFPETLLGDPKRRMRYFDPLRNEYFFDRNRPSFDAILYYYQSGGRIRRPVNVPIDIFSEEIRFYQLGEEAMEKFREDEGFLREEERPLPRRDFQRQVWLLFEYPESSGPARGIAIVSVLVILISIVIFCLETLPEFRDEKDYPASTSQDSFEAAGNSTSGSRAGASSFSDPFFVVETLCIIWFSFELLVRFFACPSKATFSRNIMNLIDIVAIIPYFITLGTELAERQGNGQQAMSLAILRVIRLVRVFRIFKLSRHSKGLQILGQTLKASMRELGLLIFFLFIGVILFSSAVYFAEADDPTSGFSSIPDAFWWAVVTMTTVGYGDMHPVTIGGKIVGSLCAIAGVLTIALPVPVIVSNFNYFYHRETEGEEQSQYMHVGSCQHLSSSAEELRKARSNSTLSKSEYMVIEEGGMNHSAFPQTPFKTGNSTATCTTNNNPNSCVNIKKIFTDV

`CC[C@H](C)[C@@H]1NC(=O)[C@@H](NC(=O)[C@H](CO)NC(=O)[C@@H](N)CCCNC(=N)N)CSSC[C@@H](C(=O)O)NC(=O)[C@H]([C@@H](C)O)NC(=O)CNC(=O)[C@@H]2CSSC[C@@H]3NC(=O)[C@H](CCC(N)=O)NC(=O)[C@H](Cc4ccccc4)NC(=O)[C@H](C)NC(=O)[C@H]([C@@H](C)O)NC(=O)[C@H](CSSC[C@H](NC(=O)[C@H](Cc4ccccc4)NC(=O)[C@H](CO)NC(=O)[C@H](CC(C)C)NC(=O)[C@H](CCCNC(=N)N)NC(=O)[C@H](Cc4ccc(O)cc4)NC(=O)[C@H](CCCCN)NC(=O)[C@H](CCSC)NC(=O)[C@H](CO)NC(=O)[C@H](Cc4cnc[nH]4)NC(=O)[C@H](CCCCN)NC3=O)C(=O)N[C@@H](CCCCN)C(=O)N[C@@H](CCCCN)C(=O)N[C@@H]([C@@H](C)O)C(=O)N2)NC(=O)[C@H](CCCNC(=N)N)NC(=O)[C@H](CO)NC(=O)[C@H](CCCCN)NC(=O)[C@@H]2CCCN2C(=O)[C@H]([C@@H](C)CC)NC(=O)[C@H]([C@@H](C)O)NC(=O)[C@H](CC(=O)O)NC1=O`: the values for the half-inhibitory concentration (IC50) in experiment [1], in experiment [2] and in experiment [3] were 293 pM, 41 pM and 71 pM, respectively.

With `CC[C@H](C)[C@@H]1NC(=O)[C@@H](NC(=O)[C@H](CO)NC(=O)[C@@H](N)CCCNC(=N)N)CSSC[C@@H](C(=O)O)NC(=O)[C@H](CCCCN)NC(=O)CNC(=O)[C@@H]2CSSC[C@@H]3NC(=O)[C@H](CCC(N)=O)NC(=O)[C@H](Cc4ccccc4)NC(=O)[C@H](C)NC(=O)[C@H]([C@@H](C)O)NC(=O)[C@H](CSSC[C@H](NC(=O)[C@H](Cc4ccccc4)NC(=O)[C@H](CO)NC(=O)[C@H](CC(C)C)NC(=O)[C@H](CCCNC(=N)N)NC(=O)[C@H](Cc4ccc(O)cc4)NC(=O)[C@H](CCCCN)NC(=O)[C@H](CCSC)NC(=O)[C@H](CO)NC(=O)[C@H](Cc4cnc[nH]4)NC(=O)[C@H](CCCCN)NC3=O)C(=O)N[C@@H](CCCNC(=N)N)C(=O)N[C@@H](CCCCN)C(=O)N[C@@H]([C@@H](C)O)C(=O)N2)NC(=O)[C@H](CCCNC(=N)N)NC(=O)[C@H](CO)NC(=O)[C@H](CCCCN)NC(=O)[C@@H]2CCCN2C(=O)[C@H]([C@@H](C)CC)NC(=O)[C@H]([C@@H](C)O)NC(=O)[C@H](CC(=O)O)NC1=O`, the figures for the IC50 in experiment [1], in experiment [2] and in experiment [3] were 153 pM, 67 pM and 136 pM, respectively.

As for `CC[C@H](C)[C@@H]1NC(=O)[C@@H](NC(=O)[C@H](CO)NC(=O)[C@@H](N)CCCNC(=N)N)CSSC[C@@H](C(=O)O)NC(=O)[C@H]([C@@H](C)O)NC(=O)CNC(=O)[C@@H]2CSSC[C@@H]3NC(=O)[C@H](CCCCN)NC(=O)[C@H](Cc4ccccc4)NC(=O)[C@H](C)NC(=O)[C@H]([C@@H](C)O)NC(=O)[C@H](CSSC[C@H](NC(=O)[C@H](Cc4ccccc4)NC(=O)[C@H](CO)NC(=O)[C@H](CC(C)C)NC(=O)[C@H](CCCNC(=N)N)NC(=O)[C@H](Cc4ccc(O)cc4)NC(=O)[C@H](CCCCN)NC(=O)[C@H](CCCCN)NC(=O)[C@H](CO)NC(=O)[C@H](Cc4cnc[nH]4)NC(=O)[C@H](CCCCN)NC3=O)C(=O)N[C@@H](CCCNC(=N)N)C(=O)N[C@@H](CCCCN)C(=O)N[C@@H]([C@@H](C)O)C(=O)N2)NC(=O)[C@H](CCCNC(=N)N)NC(=O)[C@H](CO)NC(=O)[C@H](CCCCN)NC(=O)[C@@H]2CCCN2C(=O)[C@H]([C@@H](C)CC)NC(=O)[C@H]([C@@H](C)O)NC(=O)[C@H](CC(=O)O)NC1=O`, the IC50 was found to be 130 pM in experiment [1] (cho-k1), 249 pM in experiment [2] and 5680 pM in experiment [3].

On to `CCCC[C@@H]1NC(=O)[C@H](CO)NC(=O)[C@H](Cc2c[nH]cn2)NC(=O)[C@H](CCCCN)NC(=O)[C@@H]2CSSC[C@@H]3NC(=O)[C@H]([C@@H](C)O)NC(=O)[C@H](CCCCN)NC(=O)[C@H](CCCNC(=N)N)NC(=O)[C@H](CSSC[C@H](NC(=O)[C@H](CCCNC(=N)N)NC(=O)[C@H](CO)NC(=O)[C@H](CCCCN)NC(=O)[C@@H]4CCCN4C(=O)[C@H]([C@@H](C)CC)NC(=O)[C@H]([C@@H](C)O)NC(=O)[C@H](CC(=O)O)NC(=O)[C@H]([C@@H](C)CC)NC(=O)[C@@H](NC(=O)[C@H](CO)NC(=O)[C@@H](N)CCCNC(=N)N)CSSC[C@@H](C(=O)N[C@@H](C)C(=O)O)NC(=O)[C@H]([C@@H](C)O)NC(=O)CNC3=O)C(=O)N[C@@H]([C@@H](C)O)C(=O)N[C@@H](C)C(=O)N[C@@H](Cc3ccccc3)C(=O)N[C@@H](CCCCN)C(=O)N2)NC(=O)[C@H](Cc2ccccc2)NC(=O)[C@H](CO)NC(=O)[C@H](CC(C)C)NC(=O)[C@H](CCCNC(=N)N)NC(=O)[C@H](Cc2ccc(O)cc2)NC(=O)[C@H](CCCCN)NC1=O`, for which the IC50 stood at 71 pM in experiment [1], 305 pM in experiment [2] and 515 pM in experiment [3].

As for `CC[C@H](C)[C@@H]1NC(=O)[C@@H](NC(=O)[C@H](CO)NC(=O)[C@@H](N)CCCNC(=N)N)CSSC[C@@H](C(=O)O)NC(=O)[C@H]([C@@H](C)O)NC(=O)CNC(=O)[C@@H]2CSSC[C@@H]3NC(=O)[C@H](CCC(N)=O)NC(=O)[C@H](CCC(=O)O)NC(=O)[C@H](C)NC(=O)[C@H]([C@@H](C)O)NC(=O)[C@H](CSSC[C@H](NC(=O)[C@H](Cc4ccccc4)NC(=O)[C@H](CO)NC(=O)[C@H](CC(C)C)NC(=O)[C@H](CCCNC(=N)N)NC(=O)[C@H](Cc4ccc(O)cc4)NC(=O)[C@H](CCCCN)NC(=O)[C@H](CCSC)NC(=O)[C@H](CO)NC(=O)[C@H](C)NC(=O)[C@H](CCCCN)NC3=O)C(=O)N[C@@H](CCCNC(=N)N)C(=O)N[C@@H](CCCCN)C(=O)N[C@@H]([C@@H](C)O)C(=O)N2)NC(=O)[C@H](CCCNC(=N)N)NC(=O)[C@H](CO)NC(=O)[C@H](CCCCN)NC(=O)[C@@H]2CCCN2C(=O)[C@H]([C@@H](C)CC)NC(=O)[C@H]([C@@H](C)O)NC(=O)[C@H](CC(=O)O)NC1=O` (H-RSCIDTIPKSRCTAEQCKASMKYRLSFCRKTCGTC-OH; disulfide 3-35, 12-28, 17-32), the IC50 is 267 pM in experiment [1], 312 pM in experiment [2] and 575 pM in experiment [3].

For the compound `CC[C@H](C)[C@@H]1NC(=O)[C@@H](NC(=O)[C@H](CO)NC(=O)[C@@H](N)CCCNC(=N)N)CSSC[C@@H](C(=O)O)NC(=O)[C@H]([C@@H](C)O)NC(=O)CNC(=O)[C@@H]2CSSC[C@@H]3NC(=O)[C@H](CCC(N)=O)NC(=O)[C@H](CCCCN)NC(=O)[C@H](C)NC(=O)[C@H]([C@@H](C)O)NC(=O)[C@H](CSSC[C@H](NC(=O)[C@H](Cc4ccccc4)NC(=O)[C@H](CO)NC(=O)[C@H](CC(C)C)NC(=O)[C@H](CCCNC(=N)N)NC(=O)[C@H](Cc4ccc(O)cc4)NC(=O)[C@H](CCCCN)NC(=O)[C@H](CCSC)NC(=O)[C@H](CO)NC(=O)[C@H](C)NC(=O)[C@H](CCCCN)NC3=O)C(=O)N[C@@H](CCCNC(=N)N)C(=O)N[C@@H](CCCCN)C(=O)N[C@@H]([C@@H](C)O)C(=O)N2)NC(=O)[C@H](CCCNC(=N)N)NC(=O)[C@H](CO)NC(=O)[C@H](CCCCN)NC(=O)[C@@H]2CCCN2C(=O)[C@H]([C@@H](C)CC)NC(=O)[C@H]([C@@H](C)O)NC(=O)[C@H](CC(=O)O)NC1=O` (H-RSCIDTIPKSRCTAKQCKASMKYRLSFCRKTCGTC-OH; disulfide 3-35, 12-28, 17-32), the IC50 in experiment [1] was found to be 294 pM; in experiment [2], 465 pM; in experiment [3] it was 991 pM.

`CC[C@H](C)[C@@H]1NC(=O)[C@@H](NC(=O)[C@H](CO)NC(=O)[C@@H](N)CCCNC(=N)N)CSSC[C@@H](C(=O)O)NC(=O)[C@H]([C@@H](C)O)NC(=O)CNC(=O)[C@@H]2CSSC[C@@H]3NC(=O)[C@H](CCC(N)=O)NC(=O)[C@H](Cc4cccc5ccccc45)NC(=O)[C@H](C)NC(=O)[C@H]([C@@H](C)O)NC(=O)[C@H](CSSC[C@H](NC(=O)[C@H](Cc4ccccc4)NC(=O)[C@H](CO)NC(=O)[C@H](CC(C)C)NC(=O)[C@H](CCCNC(=N)N)NC(=O)[C@H](Cc4ccc(O)cc4)NC(=O)[C@H](CCCCN)NC(=O)[C@H](CCSC)NC(=O)[C@H](CO)NC(=O)[C@H](C)NC(=O)[C@H](CCCCN)NC3=O)C(=O)N[C@@H](CCCNC(=N)N)C(=O)N[C@@H](CCCCN)C(=O)N[C@@H]([C@@H](C)O)C(=O)N2)NC(=O)[C@H](CCCNC(=N)N)NC(=O)[C@H](CO)NC(=O)[C@H](CCCCN)NC(=O)[C@@H]2CCCN2C(=O)[C@H]([C@@H](C)CC)NC(=O)[C@H]([C@@H](C)O)NC(=O)[C@H](CC(=O)O)NC1=O` (H-RSCIDTIPKSRCTA[1Nal]QCKASMKYRLSFCRKTCGTC-OH; disulfide 3-35, 12-28, 17-32): the values for the IC50 in experiment [1], in experiment [2] and in experiment [3] were 73 pM, 184 pM and 291 pM, respectively.

Turning to `CC[C@H](C)[C@@H]1NC(=O)[C@@H](NC(=O)[C@H](CO)NC(=O)[C@@H](N)CCCNC(=N)N)CSSC[C@@H](C(=O)O)NC(=O)[C@H]([C@@H](C)O)NC(=O)CNC(=O)[C@@H]2CSSC[C@@H]3NC(=O)[C@H](CCC(N)=O)NC(=O)[C@H](Cc4ccccc4)NC(=O)[C@H](CCC(=O)O)NC(=O)[C@H]([C@@H](C)O)NC(=O)[C@H](CSSC[C@H](NC(=O)[C@H](Cc4ccccc4)NC(=O)[C@H](CO)NC(=O)[C@H](CC(C)C)NC(=O)[C@H](CCCNC(=N)N)NC(=O)[C@H](Cc4ccc(O)cc4)NC(=O)[C@H](CCCCN)NC(=O)[C@H](CCSC)NC(=O)[C@H](CO)NC(=O)[C@H](Cc4cnc[nH]4)NC(=O)[C@H](CCCCN)NC3=O)C(=O)N[C@@H](CCCNC(=N)N)C(=O)N[C@@H](CCCCN)C(=O)N[C@@H]([C@@H](C)O)C(=O)N2)NC(=O)[C@H](CCCNC(=N)N)NC(=O)[C@H](CO)NC(=O)[C@H](CCCCN)NC(=O)[C@@H]2CCCN2C(=O)[C@H]([C@@H](C)CC)NC(=O)[C@H]([C@@H](C)O)NC(=O)[C@H](Cc2cccc3ccccc23)NC1=O` (H-RSCI[1Nal]TIPKSRCTEFQCKHSMKYRLSFCRKTCGTC-OH; disulfide 3-35, 12-28, 17-32), the IC50 in experiment [1] stood at 110 pM; in experiment [2], 36 pM; in experiment [3], 132 pM.
